Test results published in patent publication US20130338142A1, “IMIDAZOPYRAZINE SYK INHIBITORS” (Gilead Connecticut, Inc., priority 2012, published 2013).
pIC50: −log10 of the molar value. Converted amounts (≈) assume the structure as drawn. Values belong to the molecule of their own block, whether it stands above or below them.

Key:
Syk = Syk (Homo sapiens, UniProt P43405); experiment: High throughput Syk assay (TR-FRET, KinEASE); type: biochemical; conditions: Syk TR-FRET assay of Example B2; 3 μM ATP, 0.5 nM Syk
Experimental: The following high throughput Syk assay was performed on the compounds of Table 1 as follows.
Syk activity was measured by detecting phosphorylated peptide substrate formation using antibody against phosphorylated peptide substrate. This is a time-resolved fluorescence resonance energy transfer (TR-FRET) immunoassay, based on the KinEASE Assay (Cisbio). […] Test compounds (in DMSO) were spotted into 384 well plates using a Labcyte® Echo 550 Liquid Handling System prior to addition of Syk enzyme and peptide substrate. Reaction solutions were delivered using a Multi-Flo (Bio-Tek Instruments). The enzyme and peptide solution was incubated with compound for 60 minutes at room temp before the reaction was initiated by the addition of ATP. […] The europium donor was excited using a 340-nm excitation filter with a 30-nm band pass. Energy transfer to the tracer was measured using a filter centered at 665 nm with a 10 nm bandpass. This signal was then referenced to the emission from europium peak, using a 615 nm, 10-nm bandpass filter. The “emission ratio” was calculated as the 665 nm signal divided by the 615 nm signal. Percentage of inhibition was calculated as below:
% Inhibition=100×(RatioSample−Ratio0% Inhibition)/(Ratio100% Inhibition−Ratio0% Inhibition)

Kinetic solubility study = conditions: 37 °C, kinetic from dmso stock
Experimental: The compounds tested (as listed in Table 2 below) were dissolved in dimethyl sulfoxide (DMSO) at a 10 mM concentration. A 3 μL sample aliquot of the DMSO solution is then added to 297 μL of desired aqueous media (pH 2, pH 5.4, and pH 7.4). The sample is then incubated for 24 hrs at 37° C. with shaking. After 24 hrs the samples are centrifuged, an aliquot of the supernatant liquid is removed and analyzed by HPLC. The compound concentration in the sample is determined by reference to a sample of the compound with known standard concentration.

[1] = aqueous media, pH 2, aqueous buffer
[2] = aqueous media, pH 5.4, aqueous buffer
[3] = aqueous media, pH 7.4, aqueous buffer

- pIC50 (Syk): 8.40
- solubility at 24 h (Kinetic solubility study; [1]): 94 µM (≈ 48.3 µg/mL)
- solubility at 24 h (Kinetic solubility study; [2]): 94 µM (≈ 48.3 µg/mL)
- solubility at 24 h (Kinetic solubility study; [3]): 57 µM (≈ 29.3 µg/mL)
Compound: COc1cc(Nc2nc(-c3ccc4c(c3)NCCO4)cn3ccnc23)ccc1N1CCN(C2COC2)CC1 [Compound 4, 6-(3,4-dihydro-2H-benzo[b][1,4]oxazin-6-yl)-N-(3-methoxy-4-(4-(oxetan-3-yl)piperazin-1-yl)phenyl)imidazo[1,2-a]pyrazin-8-amine]

- solubility at 24 h (Kinetic solubility study; [1]): 87 µM (≈ 39.9 µg/mL)
- solubility at 24 h (Kinetic solubility study; [2]): 10 µM (≈ 4.59 µg/mL)
- solubility at 24 h (Kinetic solubility study; [3]): 8 µM (≈ 3.67 µg/mL)
Compound: COc1cc(Nc2nc(-c3ccc4c(c3)NCCO4)cn3ccnc23)ccc1N1CCOCC1 [Compound 14x, 6-(3,4-dihydro-2H-benzo[b][1,4]oxazin-6-yl)-N-(3-methoxy-4-moipholinophenyl)imidazo[1,2-a]pyrazin-8-amine, reference compound]

- solubility at 24 h (Kinetic solubility study; [1]): 90 µM (≈ 38.7 µg/mL)
- solubility at 24 h (Kinetic solubility study; [2]): 9 µM (≈ 3.87 µg/mL)
- solubility at 24 h (Kinetic solubility study; [3]): 9 µM (≈ 3.87 µg/mL)
Compound: c1cn2cc(-c3cnc4c(c3)NCCO4)nc(Nc3ccc(N4CCOCC4)cc3)c2n1 [Compound 28x, 6-(2,3-dihydro-1H-pyrido[2,3-b][1,4]oxazin-7-yl)-N-(4-morpholinophenyl)imidazo[1,2-a]pyrazin-8-amine, reference compound]

- pIC50 (Syk): 8.52
- solubility at 24 h (Kinetic solubility study; [1]): 98 µM (≈ 45 µg/mL)
- solubility at 24 h (Kinetic solubility study; [2]): 95 µM (≈ 43.7 µg/mL)
- solubility at 24 h (Kinetic solubility study; [3]): 95 µM (≈ 43.7 µg/mL)
Compound: COc1cc(Nc2nc(-c3cnc4c(c3)NCCO4)cn3ccnc23)ccc1N1CCOCC1 [Compound 1, 6-(2,3-dihydro-1H-pyrido[2,3-b][1,4]oxazin-7-yl)-N-(3-methoxy-4-morpholinophenyl)imidazo[1,2-a]pyrazin-8-amine]

- melting point: 233 to 234 °C
Compound: COc1cc(Nc2nc(-c3cnc4c(c3)NCCO4)cn3ccnc23)ccc1N1CCOCC1 [Example 5a, 6-(2,3-dihydro-1H-pyrido[2,3-b][1,4]oxazin-7-yl)-N-(3-methoxy-4-morpholinophenyl)imidazo[1,2-a]pyrazin-8-amine]

- solubility at 24 h (Kinetic solubility study; [1]): 100 µM (≈ 48.4 µg/mL)
- solubility at 24 h (Kinetic solubility study; [2]): 61 µM (≈ 29.5 µg/mL)
- solubility at 24 h (Kinetic solubility study; [3]): 33 µM (≈ 16 µg/mL)
Compound: c1cn2cc(-c3ccc4c(c3)NCCO4)nc(Nc3ccc(N4CCN(C5COC5)CC4)cc3)c2n1 [Compound 24, 6-(3,4-dihydro-2H-benzo[b][1,4]oxazin-6-yl)-N-(4-(4-(oxetan-3-yl)piperazin-1-yl)phenyl)imidazo[1,2-a]pyrazin-8-amine]

- pIC50 (Syk): 8.15
- solubility at 24 h (Kinetic solubility study; [1]): 100 µM (≈ 47.3 µg/mL)
- solubility at 24 h (Kinetic solubility study; [2]): 100 µM (≈ 47.3 µg/mL)
- solubility at 24 h (Kinetic solubility study; [3]): 100 µM (≈ 47.3 µg/mL)
Compound: COc1cc(Nc2nc(-c3ccc4c(c3)CNCCO4)cn3ccnc23)ccc1N1CCOCC1 [Compound 3]

- solubility at 24 h (Kinetic solubility study; pH 2, aqueous buffer): 94 µM (≈ 41.5 µg/mL)
- solubility at 24 h (Kinetic solubility study; pH 5.4, aqueous buffer): 3 µM (≈ 1.32 µg/mL)
- solubility at 24 h (Kinetic solubility study; pH 7.4, aqueous buffer): 3 µM (≈ 1.32 µg/mL)
Compound: COc1cc(Nc2nc(-c3ccc4cn[nH]c4c3)cn3ccnc23)ccc1N1CCOCC1 [Compound 90x, 6-(1H-indazol-6-yl)-N-(3-methoxy-4-morpholinophenyl)imidazo[1,2-a]pyrazin-8-amine, reference compound]

- pIC50 (Syk): 7.41
Compound: COc1cc(Nc2nc(-c3cnc4c(c3)N(C)C(=O)CO4)cn3ccnc23)ccc1N1CCOCC1 [Compound 60, 7-(8-((3-methoxy-4-morpholinophenyl)amino)imidazo [1,2-a]pyrazin-6-yl)-1-methyl-1H-pyrido[2,3-b][1,4]oxazin-2(3H)-one]

- pIC50 (Syk): 8.15
Compound: OC1(c2ccc(Nc3nc(-c4cnc5c(c4)NCCO5)cn4ccnc34)cc2)CCC1 [Compound 101, 1-(4-((6-(2,3-dihydro-1H-pyrido[2,3-b][1,4]oxazin-7-yl)imidazo[1,2-a]pyrazin-8-yl)amino)phenyl)cyclobutanol]

- pIC50 (Syk): 8.52
Compound: COc1cc(Nc2nc(-c3cnc4c(c3)NCCO4)cn3ccnc23)ccc1N1CCC2(CC1)OCCO2 [Compound 103, 6-(2,3-dihydro-1H-pyrido[2,3-b][1,4]oxazin-7-yl)-N-(3-methoxy-4-(1,4-dioxa-8-azaspiro[4.5]decan-8-yl)phenyl)imidazo[1,2-a]pyrazin-8-amine]

- pIC50 (Syk): 8.70
Compound: COc1cc(Nc2nc(-c3cnc4c(c3)NCCO4)cn3ccnc23)ccc1OC1COC1 [Compound 30, 6-(2,3-dihydro-1H-pyrido[2,3-b][1,4]oxazin-7-yl)-N-(3-methoxy-4-(oxetan-3-yloxy)phenyl)imidazo[1,2-a]pyrazin-8-amine]

- pIC50 (Syk): 8.52
Compound: COc1cc(Nc2nc(-c3cnc4c(c3)NCCO4)cn3ccnc23)ccc1N1CCN(C(=O)[C@H](C)O)CC1 [Compound 85, (S)-1-(4-(4-((6-(2,3-dihydro-1H-pyrido[2,3-b][1,4]oxazin-7-yl)imidazo[1,2-a]pyrazin-8-yl)amino)-2-methoxyphenyl)piperazin-1-yl)-2-hydroxypropan-1-one]

- pIC50 (Syk): 8.00
Compound: COc1cc(Nc2nc(-c3cnc4c(c3)NCCO4)cn3ccnc23)ccc1N1CCN(C2COC2)C(C)(C)C1 [Compound 84, 6-(2,3-dihydro-1H-pyrido[2,3-b][1,4]oxazin-7-yl)-N-(4-(3,3-dimethyl-4-(oxetan-3-yl)piperazin-1-yl)-3-methoxyphenyl)imidazo[1,2-a]pyrazin-8-amine]

- pIC50 (Syk): 8.40
Compound: CC(C)c1ncc(Nc2nc(-c3cnc4c(c3)NCCO4)cn3ccnc23)s1 [Compound 54, N-(6-(2,3-dihydro-1H-pyrido[2,3-b][1,4]oxazin-7-yl)imidazo[1,2-a]pyrazin-8-yl)-2-isopropylthiazol-5-amine]

- pIC50 (Syk): 8.22
Compound: COc1cc(Nc2nc(-c3ccc4c(c3)NCCO4)cn3ccnc23)ccc1N1CC[C@@H](N)C1 [Compound 9, (R)-N-(4-(3-aminopyrrolidin-1-yl)-3-methoxyphenyl)-6-(3,4-dihydro-2H-benzo[b][1,4]oxazin-6-yl)imidazo[1,2-a]pyrazin-8-amine]

- pIC50 (Syk): 8.40
Compound: COc1cc(Nc2nc(-c3cnc4c(c3)NCCO4)cn3ccnc23)ccc1N1CCN(CC2(C)COC2)CC1 [Compound 28, 6-(2,3-dihydro-1H-pyrido[2,3-b][1,4]oxazin-7-yl)-N-(3-methoxy-4-(4-((3-methyloxetan-3-yl)methyl)piperazin-1-yl)phenyl)imidazo[1,2-a]pyrazin-8-amine]

- pIC50 (Syk): 8.10
Compound: CC(C)N1CCN(c2ccc(Nc3nc(-c4cnc5c(c4)NCCO5)cn4ccnc34)cc2)CC1 [Compound 62, 6-(2,3-dihydro-1H-pyrido[2,3-b][1,4]oxazin-7-yl)-N-(4-(4-isopropylpiperazin-1-yl)phenyl)imidazo[1,2-a]pyrazin-8-amine]

- pIC50 (Syk): 7.80
Compound: COc1cc(Nc2nc(-c3cnc4c(c3)NCCO4)cn3ccnc23)ccc1N1CC2COCC2C1 (stereo not drawn) [Compound 99, 6-(2,3-dihydro-1H-pyrido[2,3-b][1,4]oxazin-7-yl)-N-(3-methoxy-4-(tetrahydro-1H-furo[3,4-c]pyrrol-5(3H)-yl)phenyl)imidazo[1,2-a]pyrazin-8-amine]

- pIC50 (Syk): 7.96
Compound: c1cn2cc(-c3ccc4c(c3)NCCO4)nc(Nc3ccc(N4CCN(C5COC5)CC4)cc3)c2n1 [Example 24, 6-(3,4-dihydro-2H-benzo[b][1,4]oxazin-6-yl)-N-(4-(4-(oxetan-3-yl)piperazin-1-yl)phenyl)imidazo[1,2-a]pyrazin-8-amine]

- pIC50 (Syk): 8.22
Compound: C[C@H](O)[C@H]1CN(c2ccc(Nc3nc(-c4cnc5c(c4)NCCO5)cn4ccnc34)cc2)CCO1 [Compound 5, (S)-1-((R)-4-(4-((6-(2,3-dihydro-1H-pyrido[2,3-b][1,4]oxazin-7-yl)imidazo[1,2-a]pyrazin-8-yl)amino)phenyl)morpholin-2-yl)ethanol]

- pIC50 (Syk): 8.10
Compound: CC(C)n1cc(Nc2nc(-c3cnc4c(c3)NCCO4)cn3ccnc23)cn1 [Compound 36, 6-(2,3-dihydro-1H-pyrido[2,3-b][1,4]oxazin-7-yl)-N-(1-isopropyl-1H-pyrazol-4-yl)imidazo[1,2-a]pyrazin-8-amine]
